Measurements as given in ChEMBL document CHEMBL1667840, “Chemical and biological explorations of the electrophilic reactivity of the bioactive marine natural product halenaquinone with biomimetic nucleophiles” (Bioorg Med Chem Lett, 2011).

Assays:
Vero = test: Cytotoxicity against african green monkey Vero cells assessed as inhibition of [3H]hypoxanthine incorporation after 48 hrs; type: cell-based; details: Chlorocebus sabaeus
[1] = Inhibition of Saccharomyces cerevisiae FTase after 15 mins by fluorimetric analysis
Phospholipase A2 = target: T1, Phospholipase A2 (Apis mellifera, UniProt P00630); test: Inhibition of bee venom phospholipase A2 after 5 mins by spectrophotometric analysis
T1 sequence (P00630 whole entry): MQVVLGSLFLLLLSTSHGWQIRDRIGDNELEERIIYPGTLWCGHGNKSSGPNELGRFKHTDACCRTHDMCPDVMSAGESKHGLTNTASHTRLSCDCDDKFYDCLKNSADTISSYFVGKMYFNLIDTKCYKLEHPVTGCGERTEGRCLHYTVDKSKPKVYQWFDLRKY

Plasmodium falciparum [2] = test: Antiplasmodial activity against chloroquine-resistant Plasmodium falciparum FcB1 after 48 hrs; type: functional, organism-based; details: FcB1/Columbia
[3] = target: Protein farnesyltransferase (Homo sapiens, UniProt P49354+P49356); test: Inhibition of human FTase after 15 mins by fluorimetric analysis; type: protein-complex assay
Plasmodium falciparum [4] = test: Antiplasmodial activity against chloroquine-sensitive Plasmodium falciparum 3D7 after 48 hrs; type: functional, organism-based; details: 3D7, 48 h

## CC1=CCCC2(C)C1=C(O)C(=O)c1cc3c(cc12)C(=O)C=CC3=O (stereo unspecified) [ORHALQUINONE]
Vero
  IC50: > 62 µM
[1]
  IC50: 0.4 µM

## CC(C)=CCC/C(C)=C/CN/C=C1\C(=O)CC[C@]2(C)C1=C(O)C(=O)c1cc3c(cc12)C(=O)C=CC3=O
Vero
  IC50: 8.6 µM
Phospholipase A2
  IC50: 34.4 µM
Plasmodium falciparum [2]
  IC50: 0.62 µM
[3]
  IC50: 0.031 µM
[1]
  IC50: 0.017 µM
Plasmodium falciparum [4]
  IC50: 0.53 µM

## CCCCCN/C=C1\C(=O)CC[C@]2(C)C1=C(O)C(=O)c1cc3c(cc12)C(=O)C=CC3=O
Vero
  IC50: 6.3 µM
Phospholipase A2
  IC50: 23.9 µM
Plasmodium falciparum [2]
  IC50: 9.2 µM
[3]
  IC50: 0.057 µM
[1]
  IC50: 0.041 µM
Plasmodium falciparum [4]
  IC50: 7.4 µM

## C[C@@]12CCC(=O)/C(=C\NCCc3ccccc3)C1=C(O)C(=O)c1cc3c(cc12)C(=O)C=CC3=O
Vero
  IC50: 4.7 µM
Phospholipase A2
  IC50: 17.7 µM
Plasmodium falciparum [2]
  IC50: 8.8 µM
[3]
  IC50: 0.44 µM
[1]
  IC50: 0.31 µM
Plasmodium falciparum [4]
  IC50: 2.1 µM

## C[C@@]12CCC(=O)c3coc(c31)C(=O)c1cc3c(cc12)C(=O)C=CC3=O [HELENAQUINONE]
Vero
  IC50: > 60 µM
Plasmodium falciparum [2]
  IC50: > 30 µM
[1]
  IC50: 1.6 µM
Plasmodium falciparum [4]
  IC50: 30 µM

## COC(=O)CN/C=C1\C(=O)CC[C@]2(C)C1=C(O)C(=O)c1cc3c(cc12)C(=O)C=CC3=O
Vero
  IC50: 13.4 µM
Phospholipase A2
  IC50: 76.8 µM
Plasmodium falciparum [2]
  IC50: 55.8 µM
Plasmodium falciparum [4]
  IC50: 16.5 µM

## CC(C)(C)OC(=O)NCCN/C=C1\C(=O)CC[C@]2(C)C1=C(O)C(=O)c1cc3c(cc12)C(=O)C=CC3=O
Vero
  IC50: 7.4 µM
Phospholipase A2
  IC50: 12.8 µM
Plasmodium falciparum [2]
  IC50: 52.8 µM
